In brackets after ≈: the same amount, converted by molar mass. Where a SMILES comes first, the peptide text is derived from it. Bridges are numbered along the chain shown (N, C = ends). Roman numbers before positions name the chains, in order. [ ]: non-standard residue; d: D form. Pen = CC(C)(S)[C@H](N)C(=O)O; Tle = CC(C)(C)[C@H](N)C(=O)O; d(hSer) = N[C@H](CCO)C(=O)O; Hiv = CC(C)[C@H](O)C(=O)O; dDab = NCC[C@@H](N)C(=O)O; hSer = N[C@@H](CCO)C(=O)O; Orn = NCCC[C@H](N)C(=O)O; Dab = NCC[C@H](N)C(=O)O; Dap = NC[C@H](N)C(=O)O
Columns and labels:
Type in all cases: cell-based
[1] = system: human red blood cells (hRBC); test: Hemolysis; conditions: red cells of human, 1 h, 200
Summary of the method: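 First, fresh human erythrocytes are washed in PBS; next, they are incubated at 20% (v/v) with compound at 200 μg/mL for 1 h at 37° C. Finally, centrifuged supernatants are diluted and OD540 is taken relative to the Triton X-100 lysis control.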

[2] = system: Escherichia coli 926415; conditions: 926415
Summary of the method: (§1)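 MIC in μg/mL, read as absence of visible growth after 18-20 h incubation at 35° C, by standard CLSI microdilution. Peptides tested in two-fold serial dilution in cation-adjusted MH-II broth containing 0.002% (final) Polysorbate 80, against roughly 10^6 CFU/mL inocula.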

[3] = system: Escherichia coli ATCC 25922; conditions: ATCC 25922
Summary of the method: as §1

[4] = system: Acinetobacter baumannii 872842; conditions: 872842
Summary of the method: as §1

[5] = system: Acinetobacter baumannii DSM 30008; conditions: DSM 30008
Summary of the method: as §1

[6] = system: Pseudomonas aeruginosa ATCC 27853; conditions: ATCC 27853
Summary of the method: as §1

[7] = system: Klebsiella pneumoniae SSI #3010; conditions: SSI #3010
Summary of the method: as §1

[8] = system: Enterobacter cloacae 848840; conditions: 848840
Summary of the method: as §1

[9] = system: Klebsiella pneumoniae 968733; conditions: 968733
Summary of the method: as §1

| Structure (SMILES) | MIC [2] [µg/mL] | Escherichia coli ATCC 25922 MIC [3] [µg/mL] | MIC [4] [µg/mL] | Acinetobacter baumannii DSM 30008 MIC [5] [µg/mL] | Pseudomonas aeruginosa ATCC 27853 MIC [6] [µg/mL] | Klebsiella pneumoniae SSI #3010 MIC [7] [µg/mL] | MIC [8] [µg/mL] | MIC [9] [µg/mL] | MIC [3] [µg/mL] | MIC [5] [µg/mL] | MIC [6] [µg/mL] | MIC [7] [µg/mL] | Hemolysis at 200 μg/mL [1] [%] |
| --- | --- | --- | --- | --- | --- | --- | --- | --- | --- | --- | --- | --- | --- |
| CC(C)C[C@@H]1NC(=O)[C@@H](CC(C)C)NC(=O)[C@H](CCN)NC(=O)[C@@H](NC(=O)[C@H](CN)NC(=O)[C@@H](NC(=O)[C@H](CCN)NC(=O)CC[C@@H]2NC(=O)[C@H](CO)NC(=O)[C@H](Cc3ccc(O)cc3)NC(=O)[C@@H](NC(=O)[C@@H](O)C(C)C)CCCNC(=O)[C@@H]([C@H](C)O)NC(=O)[C@H](C(C)(C)C)NC(=O)[C@H](CO)NC(=O)[C@H](Cc3c[nH]c4ccccc34)NC(=O)[C@H](CCO)NC(=O)[C@@H](CCN)NC2=O)[C@@H](C)O)CCNC(=O)[C@H]([C@@H](C)O)NC(=O)[C@H](CCN)NC(=O)[C@H](CCN)NC1=O [Ex. 24] (I: H-[Hiv][Orn]YSE[dDab][hSer]WS[Tle][dT] / II: [Dab]T[Dap][Dab][Dab][dL]L[Dab][Dab]T; lactam I:2-I:C, II:4-II:C; amide I:5-II:N) | 2 (≈ 0.877 µM) | – | 1 (≈ 0.439 µM) | – | – | – | 0.25 (≈ 0.11 µM) | 0.5 (≈ 0.219 µM) | 0.125 (≈ 0.0548 µM) | 0.125 (≈ 0.0548 µM) | 0.25 (≈ 0.11 µM) | 0.125 (≈ 0.0548 µM) | <1 |
| CC(=O)N[C@H](C(=O)N[C@H]1CCCNC(=O)[C@@H](CCO)NC(=O)[C@H](C(C)(C)C)NC(=O)[C@H](CO)NC(=O)[C@H](Cc2c[nH]c3ccccc23)NC(=O)[C@H](CCO)NC(=O)[C@@H](CCN)NC(=O)[C@H](CCC(=O)N[C@@H](CCN)C(=O)N[C@H](C(=O)N[C@@H](CN)C(=O)N[C@H]2CCNC(=O)[C@H]([C@@H](C)O)NC(=O)[C@H](CCN)NC(=O)[C@H](CCN)NC(=O)[C@H](CC(C)C)NC(=O)[C@@H](CC(C)C)NC(=O)[C@H](CCN)NC2=O)[C@@H](C)O)NC(=O)[C@H](CO)NC(=O)[C@H](Cc2ccc(O)cc2)NC1=O)C(C)C [Ex. 22] (I: Ac-V[Orn]YSE[dDab][hSer]WS[Tle][d(hSer)] / II: [Dab]T[Dap][Dab][Dab][dL]L[Dab][Dab]T; lactam I:2-I:C, II:4-II:C; amide I:5-II:N) | 0.5 (≈ 0.215 µM) | – | 0.25 (≈ 0.108 µM) | – | – | – | 0.125 (≈ 0.0539 µM) | 1 (≈ 0.431 µM) | 0.0625 (≈ 0.0269 µM) | 0.0625 (≈ 0.0269 µM) | 0.5 (≈ 0.215 µM) | 0.125 (≈ 0.0539 µM) | <1 |
| CC(=O)N[C@H](C(=O)N[C@H]1CSSC[C@@H](C(=O)N[C@@H](CO)C(=O)O)NC(=O)[C@H](C(C)(C)C)NC(=O)[C@H](CO)NC(=O)[C@H](Cc2c[nH]c3ccccc23)NC(=O)[C@H]([C@@H](C)O)NC(=O)[C@@H](CCN)NC(=O)[C@H](CCC(=O)N[C@@H](CCN)C(=O)N[C@H](C(=O)N[C@@H](CCN)C(=O)N[C@H]2CCNC(=O)[C@H]([C@@H](C)O)NC(=O)[C@H](CCN)NC(=O)[C@H](CCN)NC(=O)[C@H](CC(C)C)NC(=O)[C@@H](CC(C)C)NC(=O)[C@H](CCN)NC2=O)[C@@H](C)O)NC(=O)[C@H](CCN)NC(=O)[C@H](Cc2ccc(O)cc2)NC1=O)C(C)C [Ex. 52] (I: Ac-VCY[Dab]E[dDab]TWS[Tle]CS-OH / II: [Dab]T[Dab][Dab][Dab][dL]L[Dab][Dab]T; disulfide I:2-I:11; amide I:5-II:N; lactam II:4-II:C) | 2 (≈ 0.819 µM) | – | 2 (≈ 0.819 µM) | – | – | – | 2 (≈ 0.819 µM) | 4 (≈ 1.64 µM) | 0.25 (≈ 0.102 µM) | 1 (≈ 0.41 µM) | 0.25 (≈ 0.102 µM) | 0.25 (≈ 0.102 µM) | <1 |
| CC(=O)N[C@@H]1C(=O)N[C@@H]([C@@H](C)O)C(=O)N[C@@H](Cc2ccc(O)cc2)C(=O)N[C@@H](CCN)C(=O)N[C@@H](CCC(=O)N[C@@H](CCN)C(=O)N[C@H](C(=O)N[C@@H](CN)C(=O)N[C@H]2CCNC(=O)[C@H]([C@@H](C)O)NC(=O)[C@H](CCN)NC(=O)[C@H](CCN)NC(=O)[C@H](CC(C)C)NC(=O)[C@@H](CC(C)C)NC(=O)[C@H](CCN)NC2=O)[C@@H](C)O)C(=O)N[C@H](CCN)C(=O)N[C@@H](CCN)C(=O)N[C@@H](Cc2c[nH]c3ccccc23)C(=O)N[C@@H](CCC(=O)O)C(=O)N[C@@H](C(C)(C)C)C(=O)N[C@@H](C)C(=O)N[C@H](C(N)=O)CSSC1(C)C [Ex. 228] (I: Ac-[Pen]TY[Dab]E[dDab][Dab]WE[Tle]AC-NH2 / II: [Dab]T[Dap][Dab][Dab][dL]L[Dab][Dab]T; disulfide I:1-I:12; amide I:5-II:N; lactam II:4-II:C) | 1 (≈ 0.403 µM) | – | 4 (≈ 1.61 µM) | – | – | – | 8 (≈ 3.22 µM) | 1 (≈ 0.403 µM) | 0.5 (≈ 0.201 µM) | 1 (≈ 0.403 µM) | 0.25 (≈ 0.101 µM) | 0.25 (≈ 0.101 µM) | <1 |
| CC(=O)N[C@@H](CC(C)C)C(=O)N[C@H]1CCCNC(=O)[C@@H]([C@H](C)O)NC(=O)[C@H](C(C)(C)C)NC(=O)[C@H](CO)NC(=O)[C@H](Cc2c[nH]c3ccccc23)NC(=O)[C@H](CCO)NC(=O)[C@@H](CCN)NC(=O)[C@H](CCC(=O)N[C@@H](CCN)C(=O)N[C@H](C(=O)N[C@@H](CN)C(=O)N[C@H]2CCNC(=O)[C@H]([C@@H](C)O)NC(=O)[C@H](CCN)NC(=O)[C@H](CCN)NC(=O)[C@H](CC(C)C)NC(=O)[C@@H](CC(C)C)NC(=O)[C@H](CCN)NC2=O)[C@@H](C)O)NC(=O)[C@H](CN)NC(=O)[C@H](Cc2ccc(O)cc2)NC1=O [Ex. 33] (I: Ac-L[Orn]Y[Dap]E[dDab][hSer]WS[Tle][dT] / II: [Dab]T[Dap][Dab][Dab][dL]L[Dab][Dab]T; lactam I:2-I:C, II:4-II:C; amide I:5-II:N) | 0.125 (≈ 0.0536 µM) | – | 0.0625 (≈ 0.0268 µM) | – | – | – | 0.125 (≈ 0.0536 µM) | 0.25 (≈ 0.107 µM) | 0.0625 (≈ 0.0268 µM) | 0.0625 (≈ 0.0268 µM) | 0.25 (≈ 0.107 µM) | 0.125 (≈ 0.0536 µM) | <1 |

Now from value to compound, other results behind:

| MIC [2] [µg/mL] | Escherichia coli ATCC 25922 MIC [3] [µg/mL] | MIC [4] [µg/mL] | Acinetobacter baumannii DSM 30008 MIC [5] [µg/mL] | Pseudomonas aeruginosa ATCC 27853 MIC [6] [µg/mL] | Klebsiella pneumoniae SSI #3010 MIC [7] [µg/mL] | MIC [8] [µg/mL] | MIC [9] [µg/mL] | MIC [3] [µg/mL] | MIC [5] [µg/mL] | MIC [6] [µg/mL] | MIC [7] [µg/mL] | Structure (SMILES) | Hemolysis at 200 μg/mL [1] [%] |
| --- | --- | --- | --- | --- | --- | --- | --- | --- | --- | --- | --- | --- | --- |
| 0.5 (≈ 0.212 µM) | 0.125 | 0.5 (≈ 0.212 µM) | 0.25 | 0.125 | 0.125 | 4 (≈ 1.7 µM) | 1 (≈ 0.425 µM) | – | – | – | – | CC(=O)N[C@H](C(=O)N[C@H]1CSSC[C@@H](C(=O)N[C@@H](CO)C(N)=O)NC(=O)[C@H](C(C)C)NC(=O)[C@H](CO)NC(=O)[C@H](Cc2c[nH]c3ccccc23)NC(=O)[C@H](CO)NC(=O)[C@@H](CCN)NC(=O)[C@H](CCC(=O)N[C@@H](CCN)C(=O)NCC(=O)N[C@@H](CN)C(=O)N[C@H]2CCNC(=O)[C@H]([C@@H](C)O)NC(=O)[C@H](CCN)NC(=O)[C@H](CCN)NC(=O)[C@H](CC(C)C)NC(=O)[C@@H](CC(C)C)NC(=O)[C@H](CCN)NC2=O)NC(=O)[C@H](CCN)NC(=O)[C@H](Cc2ccc(O)cc2)NC1=O)C(C)C [Ex. 307] (I: Ac-VCY[Dab]E[dDab]SWSVCS-NH2 / II: [Dab]G[Dap][Dab][Dab][dL]L[Dab][Dab]T; disulfide I:2-I:11; amide I:5-II:N; lactam II:4-II:C) | <1 |
| 0.0625 (≈ 0.0259 µM) | – | 0.0625 (≈ 0.0259 µM) | – | – | – | 0.125 (≈ 0.0518 µM) | 0.125 (≈ 0.0518 µM) | 0.03125 (≈ 0.013 µM) | 0.0625 (≈ 0.0259 µM) | 0.0625 (≈ 0.0259 µM) | 0.0625 (≈ 0.0259 µM) | CC(=O)N[C@H](C(=O)N[C@H]1CSSC[C@@H](C(=O)N[C@H](C(N)=O)[C@@H](C)O)NC(=O)[C@H](C(C)C)NC(=O)[C@H](CO)NC(=O)[C@H](Cc2c[nH]c3ccccc23)NC(=O)[C@H](CCN)NC(=O)[C@@H](CCN)NC(=O)[C@H](CCC(=O)N[C@@H](CCN)C(=O)N[C@H](C(=O)N[C@@H](CN)C(=O)N[C@H]2CCNC(=O)[C@H]([C@@H](C)O)NC(=O)[C@H](CCN)NC(=O)[C@H](CCN)NC(=O)[C@H](CC(C)C)NC(=O)[C@@H](CC(C)C)NC(=O)[C@H](CCN)NC2=O)[C@@H](C)O)NC(=O)[C@H](CO)NC(=O)[C@H](Cc2ccc(O)cc2)NC1=O)C(C)C [Ex. 267] (I: Ac-VCYSE[dDab][Dab]WSVCT-NH2 / II: [Dab]T[Dap][Dab][Dab][dL]L[Dab][Dab]T; disulfide I:2-I:11; amide I:5-II:N; lactam II:4-II:C) | <1 |

Source: patent US11629171B2, “Beta-hairpin peptidomimetics” (POLYPHOR AG, priority 2017, dated 2023)
